# Assay results from article PMC8360279, “Combination of Polygoni Multiflori Radix Praeparata and Acori Tatarinowii Rhizoma Alleviates Learning and Memory Impairment in Scopolamine-Treated Mice by Regulating Synaptic-Related Proteins” (Frontiers in Pharmacology, 2021).
# Counter-ions that a name gives are not always drawn.
# What was measured:
# [1] = test system: neurotransmitter levels in the cerebral cortex of scopolamine-treated mice; assay: HPLC-MS analysis of neurotransmitter content in mouse cortical tissue; format: in vivo, Kunming mice; conditions: scopolamine injection 4 mg/kg i.p. vs control mice
# [2] = test system: P90RSK and PSD95 in the hippocampus; assay: Immunohistochemistry of P90RSK and PSD95 in the hippocampus; format: in vivo, Kunming mice; conditions: scopolamine vs control mice
# Experimental: The brain was removed and immediately fixed in 4% paraformaldehyde in PBS. […] After quenching endogenous peroxidase and blocking with normal goat serum, the sections were incubated overnight at 4°C with antibodies against P90RSK and PSD95 (both at 1:5,000). The sections were washed with PBS and incubated with secondary antibodies for 2 h at 37°C, and then stained with 3,3′-diaminobenzidine in chromogen solution; they were then counterstained with hematoxylin, dehydrated in ethanol, cleared in xylene, and mounted with Cytoseal (Thermo Fisher Scientific). P90RSK and PSD95 immunoreactivity was measured using Image Pro Plus v6.0 software (Media Cybernetics, Rockville, MD, United States). Brown staining on the cell membrane or in the cytoplasm was represented positive staining, with the staining intensity reflecting the expression levels of P90RSK and PSD95 proteins.
# scopolamine-treated mice = assay: Morris water maze test in scopolamine-treated mice; conditions: scopolamine 4 mg/kg i.p. (dementia model); starting from day 3; p < 0.001
# Experimental: The mice were randomly divided into the following eight groups (n = 12 per group): 1) control (normal feeding); 2) model [scopolamine, 4 mg kg^−1⋅day^−1 by intraperitoneal injection (i.p.)]; 3) PAL [scopolamine, 4 mg kg^−1⋅day^−1 i. p. + PA, 1.56 g kg^−1⋅day^−1 by intragastric administration (i.g.)]; 4) PAH (scopolamine, 4 mg kg^−1⋅day^−1 i. p. + PA, 6.24 g kg^−1⋅day^−1 i. g.); 5) PL (scopolamine, 4 mg kg^−1⋅day^−1 i. p. + PMRP, 0.78 g kg^−1⋅day^−1 i. g.); 6) PH (scopolamine, 4 mg kg^−1⋅day^−1 i. p. + PMRP 3.12 g kg^−1⋅day^−1 i. g.); 7) AL (scopolamine, 4 mg kg^−1⋅day^−1 i. p.+ ATR, 0.78 g kg^−1⋅day^−1 i. g.); and 8) AH (scopolamine, 4 mg kg^−1⋅day^−1 i. p. + ATR, 3.12 g kg^−1⋅day^−1 i. g.). Mice in each group were orally administered PA, PMRP, or ATR every day for 30 days; after the last gavage, scopolamine was intraperitoneally injected and the Morris water maze experiment was conducted 40 min later for 6 days.
# Spatial memory was assessed with the Morris water maze test as previously described [Lan et al. (2012)], with slight modifications. […] Each mouse was tested twice a day for 5 days and the latency to reach the platform was recorded. […] The time that the mouse spent in the target quadrant (ie, where the platform was previously hidden) and the number of times it crossed the platform were measured. […]
# [3] = test system: BDNF, TrkB, ERK, p-ERK, CREB, and p-CREB proteins in the hippocampus; assay: Western blot of BDNF/TrkB/ERK/CREB signaling axis components in the hippocampus; conditions: scopolamine treatment vs control mice
# Experimental: The mice were randomly divided into the following eight groups (n = 12 per group): 1) control (normal feeding); 2) model [scopolamine, 4 mg kg^−1⋅day^−1 by intraperitoneal injection (i.p.)]; 3) PAL [scopolamine, 4 mg kg^−1⋅day^−1 i. p. + PA, 1.56 g kg^−1⋅day^−1 by intragastric administration (i.g.)]; 4) PAH (scopolamine, 4 mg kg^−1⋅day^−1 i. p. + PA, 6.24 g kg^−1⋅day^−1 i. g.); 5) PL (scopolamine, 4 mg kg^−1⋅day^−1 i. p. + PMRP, 0.78 g kg^−1⋅day^−1 i. g.); 6) PH (scopolamine, 4 mg kg^−1⋅day^−1 i. p. + PMRP 3.12 g kg^−1⋅day^−1 i. g.); 7) AL (scopolamine, 4 mg kg^−1⋅day^−1 i. p.+ ATR, 0.78 g kg^−1⋅day^−1 i. g.); and 8) AH (scopolamine, 4 mg kg^−1⋅day^−1 i. p. + ATR, 3.12 g kg^−1⋅day^−1 i. g.). […]
# Three mice per group were deeply anesthetized with chloral hydrate (320 mg/kg i. p.) 60 min after the behavioral test and perfused through the ascending aorta with PBS. […] The hippocampus tissue was lysed in radioimmunoprecipitation assay buffer containing protease and phosphatase inhibitors; the protein concentration of the lysate was determined with the Bradford assay. […] After three washes with washing buffer and incubation with secondary antibody (1:3,000) for 2 h, protein bands were detected with SuperSignal West Pico Chemiluminescent Substrate (Solarbio, Beijing, China) and the signal intensity of target protein bands was normalized to that of the loading control (actin).
# [4] = Chen et al., cited from earlier work
# [5] = Pharmacokinetics in rat plasma after oral administration of PA, PMRP or ATR (HPLC-MS and GC-MS); conditions: for Tmax: rat plasma, mean ± S.D., n = 6; for Plasma concentration after oral PA compared to the level after PMRP or ATR: rats, PA 4.32 g/kg vs PMRP or ATR 2.16 g/kg
# Experimental: (§1) Additionally, 18 rats were orally administered PA, PMRP, or ATR once, respectively (6 rats in each group). The doses were 4.32 g/kg for PA, 2.16 g/kg for PMRP or ATR. The whole blood samples were collected at different time points.
# (§2) The components of PA were analyzed by HPLC-MS. The samples were separated on a ZORBAX StableBond C18 reversed-phase column (2.1 × 50 mm, 1.8 μm) (Agilent Technologies Co., CA, United States). The autosampler was set at 20 C, and gradient elution was performed with 0.1% formic acid as solvent A and acetonitrile as solvent B. The gradient program was as follows: 0–10 min, 88%–40% A; 10–12 min, 40%–1% A; and 12–15 min, 1% A. The flow rate was set at 0.3 ml min^−1, and the injection volume was 4 μL. The total run time was 15 min for each sample.
# (§3) GC-MS analysis was conducted on a 7890A series gas chromatograph coupled to a Model 7,693 autosampler and Model 5975C Inert XL EI MSD with Triple-Axis Detector (Thermo Fisher Scientific). The carrier gas was 99.99% high-purity helium at a flow rate of 1.2 ml/min. Samples were separated on a TG-5MS column (60 × 0.25 mm and 0.25 μm film thickness). The sample volume was 1 μL with a split ratio of 5:1. The oven temperature program was initially set at 100°C for 1 min, then ramped at 10°C/min to 180°C and held for 1 min; ramped at 5°C/min to 210°C and held for 1 min; and ramped at 10°C/min to 260°C and held for 5 min. The total run time was 27 min. The injection port and detector temperatures were 280°C and 300°C, respectively. Electrospray ionization was performed at 70 eV. Selective ion monitoring was set for quantitation with a dwell time of 100 m/ion.
# (§4) Male rats (n = 18) were fasted but had free access to water for 12 h prior to administration of PA, PMRP, and ATR (6 rats in each group). Blood samples were collected from the posterior orbital venous plexus of rats before dosing (time 0) and 5, 10, and 30 min and 1, 2, 4, 8, 16, and 24 h after dosing. The samples were immediately centrifuged at 4,500 rpm for 10 min and the separated plasma samples were stored at −80°C until analysis.
# in vivo = conditions: male, Sprague-Dawley, rat, po; for Tmax: rat plasma, mean ± S.D., n = 6
# Experimental: as §1, §2, §3, §4
# ERK1/2/Nrf2/HO-1 pathway = test system: ERK1/2/Nrf2/HO-1 pathway; parameters: method as in Lai et al. (2020); conditions: by modulating the ERK1/2/Nrf2/HO-1 pathway; ref Lai et al. (2020); cited from earlier work
# [6] = male, Sprague-Dawley, rat, in vivo, po, 4.32 g/kg
# Experimental: as §1, §2, §3, §4
# [7] = male, Sprague-Dawley, rat, plasma, po, 2.16 g/kg
# [8] = male, Sprague-Dawley, rat, plasma, po, 4.32 g/kg
# [9] = male, Sprague-Dawley, rat, plasma, po, 4.32 g/kg, Tmax, oral PA extract 4.32 g/kg once
# [10] = 4.32 g/kg, oral PA extract 4.32 g/kg once
# [11] = oral ATR extract 2.16 g/kg once
# [12] = male, Sprague-Dawley, rat, plasma, po, 2.16 g/kg, Tmax, oral ATR extract 2.16 g/kg once
# [13] = 2.16 g/kg, oral PMRP extract 2.16 g/kg once
# [14] = oral PMRP extract 2.16 g/kg once
"Cmax [5, 8] [ng/mL]",Compound,"AUC(0-inf) [5, 7] [ng·h/mL]","AUC(0-t) [5, 7] [ng·h/mL]","Cmax [5, 7] [ng/mL]","half-life [5, 7] [h]","AUC(0-inf) [5, 8] [ng·h/mL]","AUC(0-t) [5, 8] [ng·h/mL]","half-life [5, 8] [h]","Tmax [5, 9] [h]",Plasma concentration after oral PA compared to the level after PMRP or ATR [5],AUC(0-inf) (in vivo; 2.16 g/kg) [ng·h/mL],AUC(0-t) (in vivo; 2.16 g/kg) [ng·h/mL],Cmax (in vivo; 2.16 g/kg) [ng/mL],half-life (in vivo; 2.16 g/kg) [h],AUC(0-inf) (in vivo; 4.32 g/kg) [ng·h/mL],AUC(0-t) (in vivo; 4.32 g/kg) [ng·h/mL],Cmax (in vivo; 4.32 g/kg) [ng/mL],Tmax (in vivo; [10]) [h],"Tmax [5, 11] [h]",Tmax ([5]; oral PA extract 4.32 g/kg once) [h],other results
–,"CN1[C@@H]2C[C@@H](OC(=O)[C@H](CO)c3ccccc3)C[C@H]1[C@@H]1O[C@@H]12 [Scopolamine, Scopolamine Hydrobromide]",–,–,–,–,–,–,–,–,–,–,–,–,–,–,–,–,–,–,–,"Concentrations of ACh, 5-HT, NE, Epi, Glu and GABA in the cortex [1]: reduced; Immunoreactivity of P90RSK and PSD95 in the hippocampus [2]: reduced; Time to find the platform vs controls (scopolamine-treated mice): significantly longer; Levels of BDNF, TrkB, ERK, p-ERK, CREB and p-CREB proteins in the hippocampus [3]: reduced"
708 ± 281,"OCC1OC(Oc2c(O)cc(O)cc2C=Cc2ccc(O)cc2)C(O)C(O)C1O [THSG, 2,3,5,4′-Tetrahydroxystilbene-2-O-β-D-glucoside]",102 ± 49.7,102 ± 49.4,147 ± 105,0.17 ± 0.136,1630,1520,3.01 ± 3.36,0.81,increased,–,–,–,–,–,–,–,–,–,–,"Effect on memory ([4]; by modulating ERK1/2 and CREB activation and increasing BDNF and PSD95 levels, ref Hou et al., 2011, Wang et al., Zhou et al., 2012, Shen et al., 2015, 2016): enhanced memory; Tmax ([5]; male, Sprague-Dawley, rat, plasma, po, 2.16 g/kg, Tmax, oral PMRP extract 2.16 g/kg once): 0.39 h; Tmax ([5]; oral PA extract 4.32 g/kg once, listed as 2,3,5,4′-Tetrahydroxystilbene-2-O-β-glucoside): 0.806 ± 0.695 h; Tmax ([5]; oral PMRP extract 2.16 g/kg once, listed as 2,3,5,4′-Tetrahydroxystilbene-2-O-β-glucoside): 0.389 ± 0.356 h"
–,COc1cc(OC)c(OC)cc1C=O [asarylaldehyde],–,–,–,–,–,–,–,–,increased,1550,1440,119 ± 52.2,7.18 ± 1.23,1970 ± 766,1710 ± 503,200 ± 45,0.43,2.208 ± 3.217,0.431 ± 0.442,"Tmax (in vivo; 2.16 g/kg, oral ATR extract 2.16 g/kg once): 2.21 h; half-life (in vivo; 4.32 g/kg): 7.38 ± 2.94 h"
24.1 ± 4.99,C/C=C/c1ccc(OC)c(OC)c1 [cis-methyl isoeugenol],123 ± 30,93.8 ± 20.4,19.4 ± 18.8,7.49 ± 2.55,129 ± 45.5,118 ± 45.2,8.1 ± 2.69,1.58,similar,–,–,–,–,–,–,–,–,3.514 ± 3.753,1.583 ± 3.163,"Tmax [5, 12]: 3.51 h"
–,Cc1cc(O)c2c(c1)C(=O)c1cc(O)cc(O)c1C2=O [emodin],–,–,–,–,–,–,–,–,–,7400,847 ± 802,370 ± 288,3.7 ± 6.83,4160,1810 ± 934,363 ± 122,0.47,–,0.472 ± 0.748,"Effect on synaptic impairment (ERK1/2/Nrf2/HO-1 pathway): protected against synaptic impairment; Tmax (in vivo; [13]): 2.76 h; half-life (in vivo; 4.32 g/kg): 14 ± 11.8 h; Tmax [5, 14]: 2.764 ± 4.056 h"
–,O=C(O)c1cc(O)c(O)c(O)c1 [gallic acid],–,–,–,–,–,–,–,–,similar,2700,2460,216 ± 47.9,6.98 ± 2.15,1530,831 ± 497,246 ± 244,0.44,–,0.444 ± 0.763,"T1/2 [6]: 19.532 ± 13.369 h; Tmax (in vivo; [13]): 0.69 h; Tmax [5, 14]: 0.694 ± 0.356 h"
–,C/C=C\c1cc(OC)c(OC)cc1OC [β-asarone],1050,603 ± 281,49.8 ± 16,10.7 ± 6.94,744 ± 620,439 ± 209,14 ± 14.8,0.35,similar,–,–,–,–,–,–,–,–,4.778 ± 3.777,0.347 ± 0.351,"Tmax [5, 12]: 4.78 h"

Compound,"Cmax [5, 8] [ng/mL]","AUC(0-inf) [5, 7] [ng·h/mL]","AUC(0-t) [5, 7] [ng·h/mL]","Cmax [5, 7] [ng/mL]","half-life [5, 7] [h]","AUC(0-inf) [5, 8] [ng·h/mL]","AUC(0-t) [5, 8] [ng·h/mL]","half-life [5, 8] [h]","Tmax [5, 9] [h]",Plasma concentration after oral PA compared to the level after PMRP or ATR [5],AUC(0-inf) (in vivo; 2.16 g/kg) [ng·h/mL],AUC(0-t) (in vivo; 2.16 g/kg) [ng·h/mL],Cmax (in vivo; 2.16 g/kg) [ng/mL],half-life (in vivo; 2.16 g/kg) [h],AUC(0-inf) (in vivo; 4.32 g/kg) [ng·h/mL],AUC(0-t) (in vivo; 4.32 g/kg) [ng·h/mL],Cmax (in vivo; 4.32 g/kg) [ng/mL],Tmax (in vivo; [10]) [h],"Tmax [5, 11] [h]",Tmax ([5]; oral PA extract 4.32 g/kg once) [h],other results
C/C=C/c1cc(OC)c(OC)cc1OC [α-asarone],101 ± 30.3,1040,600 ± 360,73.5 ± 25.9,11.8 ± 12.6,1240,1020,8.26 ± 2.7,0.88,increased,–,–,–,–,–,–,–,–,3.542 ± 3.736,0.875 ± 0.699,"Effect on learning and memory deficits ([4]; ref Limón et al., 2009, Shin et al., 2014, Li et al., 2019, 2020): improved learning and memory deficits; Tmax [5, 12]: 3.54 h"
